Experimental data reported in US11780845B2 (Relay Therapeutics, Inc., priority 2019, dated 2023).

Target: T1, FGFR2 (Homo sapiens (Human), UniProt P21802)
Experiment: Biochemical FGFR2 Caliper assay
Settings: not given

T1 sequence (P21802 22-821): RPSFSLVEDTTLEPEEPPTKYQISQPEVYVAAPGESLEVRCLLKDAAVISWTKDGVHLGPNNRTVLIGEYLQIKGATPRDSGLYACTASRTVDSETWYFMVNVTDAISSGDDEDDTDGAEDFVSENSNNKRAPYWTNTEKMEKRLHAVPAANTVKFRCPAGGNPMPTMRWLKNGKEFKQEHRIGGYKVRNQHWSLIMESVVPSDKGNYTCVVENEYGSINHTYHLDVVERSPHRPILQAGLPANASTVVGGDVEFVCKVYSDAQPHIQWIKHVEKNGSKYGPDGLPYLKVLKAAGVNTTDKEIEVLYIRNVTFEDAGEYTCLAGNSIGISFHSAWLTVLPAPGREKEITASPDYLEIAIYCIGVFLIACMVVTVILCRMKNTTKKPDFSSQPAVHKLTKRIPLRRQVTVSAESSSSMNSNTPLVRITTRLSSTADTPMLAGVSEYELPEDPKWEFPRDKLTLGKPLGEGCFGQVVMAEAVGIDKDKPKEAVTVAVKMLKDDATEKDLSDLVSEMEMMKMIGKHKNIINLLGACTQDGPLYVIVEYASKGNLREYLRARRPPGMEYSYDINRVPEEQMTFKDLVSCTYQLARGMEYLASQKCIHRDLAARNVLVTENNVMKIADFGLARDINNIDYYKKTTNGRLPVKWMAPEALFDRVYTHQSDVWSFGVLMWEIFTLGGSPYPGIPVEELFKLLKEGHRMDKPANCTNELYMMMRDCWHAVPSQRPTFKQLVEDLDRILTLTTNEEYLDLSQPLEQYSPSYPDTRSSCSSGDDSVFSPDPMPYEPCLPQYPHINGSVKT

IC50	Compound
250 to 1000 nM	C=CC(=O)N1CC[C@H](c2c(-c3ccc(Oc4cccc(C)n4)cc3)c3c(N)ncnc3n2C)[C@H]1C (single isomer, unassigned) [Example 941]
1000 to 100000 nM	C=C(C)C(=O)Nc1ccc(-c2c(-c3ccc4c(c3)NCCN4C)c3c(N)ncnc3n2C)cc1 [Example 1267]
1000 to 100000 nM	C=CC(=O)NCc1ccc(-c2c(-c3ccc(Oc4nccc(C)n4)cc3)c3c(N)ncnc3n2C)cc1 [Example 921]
< 100 nM	C=C(C)C(=O)Nc1ccc(-c2c(-c3ccc(C(=O)NC4CC(F)(F)C4)c(OC)c3)c3c(N)ncnc3n2C)cc1 [Example 912]
< 100 nM	C=CC(=O)N1CC=C(c2c(-c3ccc(Oc4cccc(C)n4)cc3)c3c(N)ncnc3n2C)[C@@H]1C (single isomer, unassigned) [Example 933]
250 to 1000 nM	C#Cc1cc(OC)c(-c2c(C3=CC[C@@H](C(=O)N4CCC[C@H]4C#N)CC3)c3c(C)ncnc3n2C)cn1 [Example 1467]
1000 to 100000 nM	C=C(C)C(=O)Nc1ccc(-c2c(C3=CC[C@@H](C(=O)N4CC[C@H]5C[C@H]54)CC3)c3c(N)ncnc3n2C)cc1 (single isomer, unassigned) [Example 1039]
250 to 1000 nM	C=C(C)C(=O)Nc1ccc(-c2c(C3=CC[C@@H](C(=O)N4CCc5ccccc54)CC3)c3c(N)ncnc3n2C)cc1 (single isomer, unassigned) [Example 985]
< 100 nM	C#Cc1cc(C)c(-c2c(-c3ccc(Oc4nc(C)cc(C)n4)c(F)c3)c3c(N)ncnc3n2C)cn1 [Example 1368]

System: SNU-16
Experiment: Cell SNU-16 assay
Format: cell-based
Settings: Homo sapiens, SNU-16, SNU-16 cells

IC50	Compound
100 to 250 nM	C=CC(=O)N1CC[C@H](c2c(-c3ccc(Oc4cccc(C)n4)cc3)c3c(N)ncnc3n2C)[C@H]1C (single isomer, unassigned) [Example 941]
1000 to 100000 nM	C=C(C)C(=O)Nc1ccc(-c2c(-c3ccc4c(c3)NCCN4C)c3c(N)ncnc3n2C)cc1 [Example 1267]
250 to 1000 nM	C=CC(=O)NCc1ccc(-c2c(-c3ccc(Oc4nccc(C)n4)cc3)c3c(N)ncnc3n2C)cc1 [Example 921]
≤ 100 nM	C=C(C)C(=O)Nc1ccc(-c2c(-c3ccc(C(=O)NC4CC(F)(F)C4)c(OC)c3)c3c(N)ncnc3n2C)cc1 [Example 912]
≤ 100 nM	C=CC(=O)N1CC=C(c2c(-c3ccc(Oc4cccc(C)n4)cc3)c3c(N)ncnc3n2C)[C@@H]1C (single isomer, unassigned) [Example 933]
≤ 100 nM	C#Cc1cc(OC)c(-c2c(C3=CC[C@@H](C(=O)N4CCC[C@H]4C#N)CC3)c3c(C)ncnc3n2C)cn1 [Example 1467]
1000 to 100000 nM	C=C(C)C(=O)Nc1ccc(-c2c(C3=CC[C@@H](C(=O)N4CC[C@H]5C[C@H]54)CC3)c3c(N)ncnc3n2C)cc1 (single isomer, unassigned) [Example 1039]
250 to 1000 nM	C=C(C)C(=O)Nc1ccc(-c2c(C3=CC[C@@H](C(=O)N4CCc5ccccc54)CC3)c3c(N)ncnc3n2C)cc1 (single isomer, unassigned) [Example 985]
≤ 100 nM	C#Cc1cc(C)c(-c2c(-c3ccc(Oc4nc(C)cc(C)n4)c(F)c3)c3c(N)ncnc3n2C)cn1 [Example 1368]

Target: T1, FGFR2
Experiment: FGFR2 Biochemical Caliper Assay
Settings: not given
Protocol: Compounds of the present invention were also tested in a FGFR2 Biochemical Caliper Assay. Compounds were prepared in 10 mM DMSO solution and serially diluted into 11 concentrations by 3-fold dilution. […] 5 uL of ATP solution (100 uM) was added to start the reaction and the plate was incubated for 90 minutes, then 70 uL of stopping buffer (0.5M EDTA) was added to terminate the reaction. Each well was analyzed using EZ reader.

IC50	Compound
100 to 250 nM	C=C(C)C(=O)Nc1ccc(-c2c(-c3ccc(C(=O)N4CCCC4)cc3)c3c(N)ncnc3n2C)c(C2CC2)c1 [Example 520]
100 to 250 nM	C=CC(=O)N1CCC(c2c(C3=CCN(C(C)=O)CC3(C)C)c3c(N)ncnc3n2C)C1 (stereo not shown) [Example 783]
< 100 nM	C=C(C)C(=O)Nc1ccc(-c2c(-c3ccc(C(=O)N(C)Cc4nc(C)no4)cc3)c3c(N)ncnc3n2C)c(F)c1 [Example 468]
< 100 nM	C=C(C)C(=O)Nc1ccc(-c2c(-c3ccc(C(=O)N4CCC5CC54)cc3)c3c(N)ncnc3n2C)c(F)c1 (stereo not shown) [Example 461]

System: SNU16 cells
Experiment: SNU16 Cancer Cell Line Proliferation Assay
Format: cell-based
Settings: Homo sapiens; SNU-16 cells
Protocol: Compounds of the present invention were also tested in a SNU16 Cancer Cell Line Proliferation Assay, Test compounds were prepared in a 10 mM DMSO stock solution. 45 uL of stock solution was transferred to a 384 well plate, and a 3-fold 11-point dolution was performed. SNU16 cells in a 384 well cell culture plate were seeded and incubated at 37 degrees for 24 hours. 40 nL of each concentration of compound was transferred from the compound plate to a corresponding well in the cell culture plate by Echo550 liquid handler. The plates were incubated for 96 hours, then equilibrated to room temperature for 15 minutes. 20 uL of CellTiter Glo reagent is added into each well, then the plate was shaken gently for 30 minutes at room temperature. Chemiluminescence was then read on an EnVision reader.

IC50	Compound
100 to 250 nM	C=C(C)C(=O)Nc1ccc(-c2c(-c3ccc(C(=O)N4CCCC4)cc3)c3c(N)ncnc3n2C)c(C2CC2)c1 [Example 520]
1000 to 100000 nM	C=CC(=O)N1CCC(c2c(C3=CCN(C(C)=O)CC3(C)C)c3c(N)ncnc3n2C)C1 (stereo not shown) [Example 783]
≤ 100 nM	C=C(C)C(=O)Nc1ccc(-c2c(-c3ccc(C(=O)N(C)Cc4nc(C)no4)cc3)c3c(N)ncnc3n2C)c(F)c1 [Example 468]
≤ 100 nM	C=C(C)C(=O)Nc1ccc(-c2c(-c3ccc(C(=O)N4CCC5CC54)cc3)c3c(N)ncnc3n2C)c(F)c1 (stereo not shown) [Example 461]
≤ 100 nM	CC#CC(=O)Nc1ccc(-c2c(-c3ccc(Oc4cccc(C)n4)c(OC)c3)c3c(N)ncnc3n2C)cc1 [Example 18]
1000 to 100000 nM	C=CC(=O)N1CCC(c2c(-c3ccc(N4CCN(C(C)C)CC4)cc3)c3c(N)ncnc3n2C)C1 (stereo not shown) [Example 770]

Compound	IC50
C=C(C)C(=O)Nc1ccc(-c2c(-c3ccc(Oc4nccc(C)n4)c(F)c3)c3c(N)ncnc3n2C)cc1 [Example 343]	≤ 100 nM

Same assay, conditions: SNU-16 cells

IC50	Compound
≤ 100 nM	C=C(C)C(=O)Nc1ccc(-c2c(-c3ccc(Oc4nccc(C)n4)c(F)c3)c3c(N)ncnc3n2C)c(C)c1 [Example 495]
≤ 100 nM	C=C(C)C(=O)Nc1ccc(-c2c(-c3ccc(Oc4nccc(C)n4)c(F)c3)c3c(N)ncnc3n2C)c(C)c1 [Example 531]
≤ 100 nM	C=C(C)C(=O)Nc1ccc(-c2c(-c3ccc(Oc4nccc(C)n4)c(F)c3)c3c(N)ncnc3n2C)c(CO)c1 [Example 535]
≤ 100 nM	C=C(C)C(=O)Nc1ccc(-c2c(-c3ccc(Oc4nccc(C)n4)c(F)c3)c3c(N)ncnc3n2C)c(C(F)F)c1 [Example 496]
≤ 100 nM	C=C(C)C(=O)Nc1ccc(-c2c(-c3ccc(Oc4nccc(C)n4)c(F)c3)c3c(N)ncnc3n2C)c(C(F)F)c1 [Example 527]
